Reference: PubChem BioAssay (NCI)
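1) Cells in 96-well plates. 2) Compound, 48 h, 5 concentrations. 3) Linear interpolation between surrounding doses. 4) Unreached endpoint = highest concentration. TGI is the concentration that stops growth completely.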

Columns and labels:
Assay in all cases: NCI-60 cell line screen, 48 h
RPMI-8226 leukemia = system: RPMI-8226 leukemia
K-562 leukemia = system: K-562 leukemia
786-0 renal = system: 786-0 renal
A549 NSCLC = system: A549 NSCLC
MOLT-4 leukemia = system: MOLT-4 leukemia
SK-OV-3 ovarian = system: SK-OV-3 ovarian
HCT-116 colon = system: HCT-116 colon
SR leukemia = system: SR leukemia
HL-60(TB) leukemia = system: HL-60(TB) leukemia
DU-145 prostate = system: DU-145 prostate
HOP-92 NSCLC = system: HOP-92 NSCLC
HCC-2998 colon = system: HCC-2998 colon
U251 CNS = system: U251 CNS
SF-295 CNS = system: SF-295 CNS
NCI-H226 lung = system: NCI-H226 lung
LOX IMVI melanoma = system: LOX IMVI melanoma
ACHN renal = system: ACHN renal
TK-10 renal = system: TK-10 renal
HOP-62 NSCLC = system: HOP-62 NSCLC
OVCAR-4 ovarian = system: OVCAR-4 ovarian
SNB-19 CNS = system: SNB-19 CNS
NCI-H460 lung = system: NCI-H460 lung
HCT-15 colon = system: HCT-15 colon
SW-620 colon = system: SW-620 colon
OVCAR-8 ovarian = system: OVCAR-8 ovarian
UO-31 renal = system: UO-31 renal
UACC-62 melanoma = system: UACC-62 melanoma
OVCAR-3 ovarian = system: OVCAR-3 ovarian
BT-549 breast = system: BT-549 breast
SK-MEL-5 melanoma = system: SK-MEL-5 melanoma
A498 renal = system: A498 renal
SK-MEL-28 melanoma = system: SK-MEL-28 melanoma
HT29 colon = system: HT29 colon
MDA-N = system: MDA-N
OVCAR-5 ovarian = system: OVCAR-5 ovarian
NCI-H23 lung = system: NCI-H23 lung
PC-3 prostate = system: PC-3 prostate
IGROV1 ovarian = system: IGROV1 ovarian
M14 melanoma = system: M14 melanoma
EKVX NSCLC = system: EKVX NSCLC
NCI/ADR-RES ovarian = system: NCI/ADR-RES ovarian
CCRF-CEM leukemia = system: CCRF-CEM leukemia
MALME-3M melanoma = system: MALME-3M melanoma
COLO 205 colon = system: COLO 205 colon
UACC-257 melanoma = system: UACC-257 melanoma
MDA-MB-435 = system: MDA-MB-435
MDA-MB-231 breast = system: MDA-MB-231 breast
MCF7 breast = system: MCF7 breast
SN12C renal = system: SN12C renal
T-47D breast = system: T-47D breast
SNB-75 CNS = system: SNB-75 CNS
SF-268 CNS = system: SF-268 CNS
RXF 393 renal = system: RXF 393 renal
SK-MEL-2 melanoma = system: SK-MEL-2 melanoma
HS 578T breast = system: HS 578T breast
KM12 colon = system: KM12 colon
SF-539 CNS = system: SF-539 CNS
CAKI-1 renal = system: CAKI-1 renal

For `CN(C)C=N[C@@H](C(=O)O)c1ccccc1`, the TGI (RPMI-8226 leukemia) was over 100 µM, the TGI (K-562 leukemia) was over 100 µM and the TGI (786-0 renal) was over 100 µM. It also gave a TGI (A549 NSCLC) of over 100 µM, a TGI (MOLT-4 leukemia) of over 100 µM and a TGI (SK-OV-3 ovarian) of over 100 µM. The TGI (HCT-116 colon) was over 100 µM, the TGI (SR leukemia) was over 100 µM and the TGI (HL-60(TB) leukemia) was over 100 µM. It also gave a TGI (DU-145 prostate) of over 100 µM, a TGI (HOP-92 NSCLC) of over 100 µM and a TGI (HCC-2998 colon) of over 100 µM. It also gave a TGI (U251 CNS) of over 100 µM, a TGI (SF-295 CNS) of over 100 µM and a TGI (NCI-H226 lung) of over 100 µM. The TGI (LOX IMVI melanoma) was over 100 µM, the TGI (ACHN renal) was over 100 µM and the TGI (TK-10 renal) was over 100 µM. For the same compound, the TGI (HOP-62 NSCLC) was over 100 µM, the TGI (OVCAR-4 ovarian) was over 100 µM and the TGI (SNB-19 CNS) was over 100 µM. The TGI (NCI-H460 lung) was over 100 µM, the TGI (HCT-15 colon) was over 100 µM and the TGI (SW-620 colon) was over 100 µM. For the same compound, the TGI (OVCAR-8 ovarian) was over 100 µM, the TGI (UO-31 renal) was over 100 µM and the TGI (UACC-62 melanoma) was over 100 µM. It also gave a TGI (OVCAR-3 ovarian) of over 100 µM, a TGI (BT-549 breast) of over 100 µM and a TGI (SK-MEL-5 melanoma) of over 100 µM. The TGI (A498 renal) was over 100 µM, the TGI (SK-MEL-28 melanoma) was over 100 µM and the TGI (HT29 colon) was over 100 µM. The TGI (MDA-N) was over 100 µM, the TGI (OVCAR-5 ovarian) was over 100 µM and the TGI (NCI-H23 lung) was over 100 µM. The TGI (PC-3 prostate) was over 100 µM, the TGI (IGROV1 ovarian) was over 100 µM and the TGI (M14 melanoma) was over 100 µM. The TGI (EKVX NSCLC) was over 100 µM, the TGI (NCI/ADR-RES ovarian) was over 100 µM and the TGI (CCRF-CEM leukemia) was over 100 µM. The TGI (MALME-3M melanoma) was over 100 µM, the TGI (COLO 205 colon) was over 100 µM and the TGI (UACC-257 melanoma) was over 100 µM. The TGI (MDA-MB-435) was over 100 µM, the TGI (MDA-MB-231 breast) was over 100 µM and the TGI (MCF7 breast) was over 100 µM. The TGI (SN12C renal) was over 100 µM, the TGI (T-47D breast) was over 100 µM and the TGI (SNB-75 CNS) was over 100 µM. It also gave a TGI (SF-268 CNS) of over 100 µM.

For `Cc1nc2ccc(Br)cc2c(=O)n1-c1ccc(N)cc1`, the TGI (K-562 leukemia) was over 100 µM, the TGI (786-0 renal) was over 100 µM and the TGI (A549 NSCLC) was over 100 µM. The TGI (RXF 393 renal) was 81.8 µM, the TGI (SK-MEL-2 melanoma) was over 100 µM and the TGI (MOLT-4 leukemia) was over 100 µM. The TGI (SK-OV-3 ovarian) was over 100 µM, the TGI (HCT-116 colon) was over 100 µM and the TGI (SR leukemia) was over 100 µM. For the same compound, the TGI (HL-60(TB) leukemia) was over 100 µM, the TGI (DU-145 prostate) was over 100 µM and the TGI (HOP-92 NSCLC) was over 100 µM. The TGI (HCC-2998 colon) was over 100 µM, the TGI (SF-295 CNS) was over 100 µM and the TGI (NCI-H226 lung) was over 100 µM. The TGI (LOX IMVI melanoma) was over 100 µM, the TGI (ACHN renal) was over 100 µM and the TGI (TK-10 renal) was over 100 µM. The TGI (HOP-62 NSCLC) was over 100 µM, the TGI (HS 578T breast) was over 100 µM and the TGI (OVCAR-4 ovarian) was over 100 µM. The TGI (SNB-19 CNS) was over 100 µM, the TGI (NCI-H460 lung) was over 100 µM and the TGI (HCT-15 colon) was over 100 µM. It also gave a TGI (SW-620 colon) of over 100 µM, a TGI (OVCAR-8 ovarian) of over 100 µM and a TGI (UO-31 renal) of over 100 µM. The TGI (UACC-62 melanoma) was over 100 µM, the TGI (KM12 colon) was over 100 µM and the TGI (OVCAR-3 ovarian) was over 100 µM. It also gave a TGI (BT-549 breast) of over 100 µM, a TGI (SK-MEL-5 melanoma) of over 100 µM and a TGI (A498 renal) of over 100 µM. For the same compound, the TGI (SK-MEL-28 melanoma) was over 100 µM, the TGI (HT29 colon) was over 100 µM and the TGI (SF-539 CNS) was over 100 µM. For the same compound, the TGI (MDA-N) was over 100 µM, the TGI (OVCAR-5 ovarian) was over 100 µM and the TGI (PC-3 prostate) was over 100 µM. For the same compound, the TGI (IGROV1 ovarian) was over 100 µM, the TGI (CAKI-1 renal) was over 100 µM and the TGI (M14 melanoma) was over 100 µM. The TGI (EKVX NSCLC) was over 100 µM, the TGI (NCI/ADR-RES ovarian) was over 100 µM and the TGI (CCRF-CEM leukemia) was over 100 µM. It also gave a TGI (MALME-3M melanoma) of over 100 µM, a TGI (COLO 205 colon) of over 100 µM and a TGI (UACC-257 melanoma) of over 100 µM. For the same compound, the TGI (MDA-MB-435) was over 100 µM, the TGI (MDA-MB-231 breast) was over 100 µM and the TGI (MCF7 breast) was over 100 µM. The TGI (SN12C renal) was over 100 µM, the TGI (SNB-75 CNS) was over 100 µM and the TGI (SF-268 CNS) was over 100 µM.
